Laboratory results published in patent US20210308211A1, “METHOD OF TREATING VIRAL INFECTIONS” (priority 2020, published 2021).
Where “and” joins values, the source holds several entries; their conditions need not be identical. Equal entries are not always repeated. Non-standard residues stand in square brackets, D forms with d. Residues, ends and D or L forms follow the SMILES beside them. pS = N[C@@H](COP(=O)(O)O)C(=O)O

System: Balb/c mice
Assay: 31-day HDM-induced asthma model, BAL cell counts
Assay type: in vivo, mouse
Conditions: for B cells / DCs / Eosinophils / Macrophages / Neutrophils / T cells / Total cells: BAL, per mouse
Description: The aim of this study was to evaluate the effect of the P140 phosphopeptide administered systemically (intravenously) in a 31-day model of HDM-induced asthma in mice. The P140 phosphopeptide was solubilized in sterile water (Braun) and 10x concentrate sterile saline was added to adjust osmolarity to 300 mosm. Osmolarity was controlled with a micro osmometer (Löser, type 15) and validated (303 mosm). The P140 phosphopeptide was used in vivo at the dose of 4 mg/kg by intravenous (i.v.) routes. Control animals received equivalent volumes (2 ml/kg) of saline (Table 8).
Nine-week-old male Balb/c mice were sensitized by intranasal (i.n.) administration of HDM extract (Stallergenes): 1 μg in 25 μl saline on days 0, 1, 2, 3, 4, and 10 μg on days 14 and 21. Mice were challenged by i.n. administration of HDM (1 μg) and/or saline on days 28, 29 and 30. Mice were treated by i.v. injection (2 ml/kg) of P140 or solvent on day 25 (see FIG. 12).
BAL was performed after airway responsiveness measurement twenty-four hours after HDM challenge as described (Daubeuf et al. 2012). Mice were anaesthetized IP (Ketamine 150 mg/kg—Xylasine 10 mg/kg). Blood was collected from the heart, centrifuged at 10,000 g for 2 min and serum stored at −20° C.
After semi-excision of the trachea, a plastic cannula was inserted, and airspace washed with 0.5 ml of 0.9% NaCl injected with a 1 ml syringe. This procedure was performed 10 times. The initial concentrated supernatant of the 2 first lavages (volume=2×0.5 ml administered, approximately 0.5 ml recovered) was collected for cytokine measurements. The remaining BAL fluid was centrifuged (300 g for 5 min, 4° C.), and cell pellets pooled. The cell pellet was suspended in 500 μl of 0.9% NaCl and used for total cell counts evaluated on a Muse® Cell Analyser (Millipore). Differential cell counts were assessed by flow cytometry (LSRII® cytometer, BD Bioscience). BAL cells were added with FCblock (0.5 μl, 553142, BD Bioscience) in a black microplate, incubated for 20 min at room temperature. Then, marker antibodies were added: CD11c-FITC (557400, BD bioscience), Gr-1-PeeFluor610 (61-5931-82, eBioscience), F4/80-PE (12-4801-82, eBioscience), CD11b-APC-Cy7 (557657, BD bioscience), CD45-AlexaFluor700 (103128, BioLegend), CD3-BV605 (564009, BD bioscience), CD19-PE-Cy7 (552854, BD bioscience). Antibodies were incubated with BAL cells for 30 min at room temperature before DAPI (5 μl, BD bioscience) addition, and flow cytometry was performed immediately.
All mice were sensitized to HDM on days 0, 1, 2, 3, 4, 14, 21, and challenged either with saline ([…]) or HDM (challenge with allergen). Results are presented as means±SEM. Differences between groups were tested for statistical significance using Student's t test for inflammatory cells and a two-way ANOVA followed by Bonferroni post-test for airway responses.

[1] = HDM + P140 (i.v. 4 mg/kg day 25, HDM-challenged)
[2] = P140 i.v. 4 mg/kg day 25, HDM-sensitized, saline-challenged (chronic asthma)
[3] = chronic asthma (saline challenge), 4 mg/kg i.v. day 25, BAL, non-significant
[4] = chronic asthma (saline challenge), 4 mg/kg i.v. day 25, BAL, p<0.05

CC[C@H](C)[C@H](NC(=O)[C@H](Cc1ccccc1)NC(=O)[C@H](C)NC(=O)[C@H](Cc1ccc(O)cc1)NC(=O)CNC(=O)[C@H](CCCNC(=N)N)NC(=O)[C@@H]1CCCN1C(=O)[C@H](CCCCN)NC(=O)CNC(=O)[C@H](COP(=O)(O)O)NC(=O)[C@H](CCCNC(=N)N)NC(=O)[C@H](CCCCN)NC(=O)[C@H](CO)NC(=O)[C@H](Cc1ccc(O)cc1)NC(=O)[C@@H](NC(=O)[C@H](CCSC)NC(=O)[C@H](Cc1c[nH]cn1)NC(=O)[C@@H](NC(=O)[C@@H](N)CCCNC(=N)N)[C@@H](C)CC)C(C)C)C(=O)N[C@@H](CCC(=O)O)C(=O)N[C@@H](Cc1ccc(O)cc1)C(=O)O [Compound P140] (H-RIHMVYSKR[pS]GKPRGYAFIEY-OH; N-terminus and C-terminus assumed)
B cells [1]: 59092 and 102246 and 42085 and 25443 and 116814 and 115000 and 53947 and 170980 | DCs [1]: 1034 and 2238 and 1793 and 242 and 586 and 1350 and 733 and 1928 | Eosinophils [1]: 955824 and 1404942 and 636065 and 342046 and 1283190 and 1036803 and 538210 and 1010686 | Macrophages [1]: 58705 and 118771 and 314326 and 126002 and 34364 and 38709 and 29121 and 73491 | Neutrophils [1]: 606700 and 510027 and 500004 and 147616 and 371317 and 487119 and 284503 and 24426 | T cells [1]: 400329 and 735865 and 383074 and 243813 and 469834 and 502985 and 334784 and 1056303 | Total cells [1]: 2140000 and 2992000 and 2190000 and 1010000 and 2310000 and 2220000 and 1270000 and 2410000 | B cells [2]: 2297 and 44688 and 22879 and 11101 and 7660 | DCs [2]: 0 and 484 and 461 and 319 and 160 | Eosinophils [2]: 124514 and 450346 and 448074 and 205568 and 239527 | Macrophages [2]: 130734 and 267685 and 360987 and 177815 and 73725 | Neutrophils [2]: 2584 and 35734 and 23986 and 34836 and 2394 | T cells [2]: 57711 and 323523 and 294011 and 208439 and 86810 | Total cells [2]: 448000 and 1390000 and 1510000 and 815000 and 484000 | Inflammatory cell recruitment in BAL (in words) (HDM-challenged mice, in comparison to the solvent group): no effect | Number of B cells, change vs solvent group [3]: −40% | Number of eosinophils, change vs solvent group [3]: −25% | Number of macrophages, increase vs solvent group [4]: 4.5 fold | Number of neutrophils, change vs solvent group [4]: −71%
